# Data: US9975860B2, “Anti-angiogenic compounds” (UNIVERSITY COLLEGE DUBLIN—NATIONAL UNIVERSITY OF IRELAND, …, priority 2014, dated 2018)
# “Also recorded” adds a separate entry of the source.
# Columns and labels:
# [1] = tested on: intersegmental vasculature in zebrafish; test: Quantification of intersegmental vessel number in zebrafish; type: in vivo; conditions: 10 μM; zebrafish embryos treated 6 hpf to 48 hpf
# Experimental: At 6 hours post fertilisation, 5 embryos per well were placed in 400 μL of embryo medium/0.1% DMSO and incubated with 10 μM compound at 28° C. on a 14 h light/10 h dark cycle. At 48 hpf larvae were manually dechorionated, euthanised, and fixed in 4% PFA at 4° C. overnight before analysis. The larvae were then washed with PBS and transferred to depression slides for observation under epi-fluorescence in an Olympus SZX16 fluorescent microscope. The number of intersegmental vessels was counted and the average number was graphed for each drug.
# (§1) All experimental protocols were carried out as per example 1 and 2. Briefly, zebrafish larvae were treated with 10 μM of AT-051/41206012 (chemical name 2-[2-(2-methoxyphenyl)ethenyl]pyrazine) purchased from Specs (The Netherlands). At 6 or 48 hours post fertilisation (hpf), 5 embryos per well were placed in 400 μl of Embryo Medium/0.1% DMSO and incubated with 10 μM AT-051/41206012 at 28° C. on a 14 h light/10 h dark cycle. Larvae were treated from 6-48 hpf (intersegmental vessel study) or from 48 to 120 hpf (primary hyaloid vessel study). At the end of the study, larvae were euthanized and fixed in 4% PFA at 4° C. overnight before analysis.
# (§2) The number of intersegmental vessels was counted and the average number was graphed for each drug. Right lenses were dissected from the larvae and transferred to depression slides for observation and the number of primary hyaloid vessels radiating from the back of the lens (3-4 main branches at 5 dpf in controls and previously described), was counted and the average number was graphed for each drug.
# [2] = tested on: primary hyaloid vessels in zebrafish; test: Quantification of primary hyaloid vasculature branch number in Tg(fli1:EGFP) zebrafish; type: in vivo
# Experimental: All experiments were carried out under ethical approval granted by the UCD animal research ethics committee. Tg(fli1:EGFP) zebrafish were maintained according to standard procedures on a 14 hr light/10 hr dark cycle at 28° C. Embryos were obtained by natural spawning and developmental stages established by time and morphological criteria. At 48 hours post fertilisation (hpf), 5 embryos per well were placed in 400 μl of Embryo Medium/0.1% DMSO and incubated with compound (typically, 10 μM) at 28° C. on a 14 h light/10 h dark cycle. At 5 days post fertilisation (dpf), larvae were euthanised, and fixed in 4% PFA at 4° C. overnight before analysis.
# Prior to analysis of the intraocular vasculature, the control and treated larvae were observed under an Olympus SZX16 stereo zoom microscope and screened for general malformations. Overall patterning of the vasculature (fin, gut and intersegmental vessels) was examined for abnormalities. Right lenses were dissected from the larvae and transferred to depression slides for observation under epi-fluorescence in the Olympus SZX16. Patterning of the hyaloid vessels on the treated larval lenses was compared to 0.1% DMSO controls and the archetypal pattern previously described (Alvarez et al., 2007; Alvarez et al., 2009). The number of primary vessels radiating from the back of the lens (3-4 main branches at 5 dpf in controls and previously described), was counted and the average number was graphed for each drug.
# as §1, §2
# [3] = tested on: human retinal (ARPE-19) cells; test: MTT cell viability assay in ARPE-19; type: cell-based; conditions: 5, 10, 25, 50, 75 or 90 μM, 96 hours
# Experimental: A 3-(4,5-dimethylthiozol-2-yl)-2,5-diphenyltetrazolium bromide (MTT) dye reduction assay was carried out to determine the cytotoxicity of each compound on either human microvascular endothelial cells (HMECs) or human retinal pigmented epithelium cells (ARPE-19). Cells were maintained in a 95% air and 5% CO2 atmosphere at 37° C. in Dulbecco modified Eagle medium (DMEM, Sigma Aldrich) with 10% fetal bovine serum, 2 mM Gibco® L-glutamine and 100 units/ml penicillin, 1 mg/ml streptomycin (Invitrogen) supplementation. On day 1, cells were trypsinized (Trypsin-EDTA 1×) and seeded 1.4×10^4 cells per well of a 96 well plate and incubated overnight. On day 2, cells were serum staved in DMEM with L-glutamine and penicillin-streptomycin supplementation for 24 h. On day 3, cells were drug treated for 24 h (HMECs) or 96 h (ARPE-19 cells) with 0.1% DMSO or 10 μM to 90 μM of each compound 4, 8, 15, 18 or 20, with 4 replicate wells of each compound. After 24-96 h, cells were incubated with […] 5 mg/ml MTT labelling Reagent (Roche) for 2 h. Subsequently, when purple formazan crystals formed cells were incubated with 1× solubilisation solution (Roche) for 4 h and absorbance read at 570 nm using a microplate reader.
# mouse aortic ring = test: Ex vivo mouse aortic ring assay (sprout formation); conditions: 10 μM; C57/BL6 mouse aortic rings in matrigel; vs 0.1% DMSO; hydrochloride
# Experimental: Aortae from sex matched C57/BL6 littermates were cleansed of adipose tissue, cut into 2 mm rings and immersed in matrigel. Aortic rings (6 per experiment) were treated with 0.1% DMSO (vehicle control/VC) or with 10 μM of Compound 4, Compound 12, Compound 15 or Compound 20. Sprouts from the perimeter of the aortic ring were counted and quantified as percentage of vehicle control (VC).
# [4] = 10 μM, zebrafish larvae treated 48 hpf to 5 dpf, vs 0.1% DMSO control
# [5] = concentrations below 10 μM (range 1, 2.5, 5, 7.5 and 10 μM tested), zebrafish larvae 48 hpf to 5 dpf
SMILES,inhibition of developmental angiogenesis of intersegmental vessels (number of intersegmental vessels) [1],"inhibition of developmental angiogenesis of the hyaloid vasculature (number of primary hyaloid vessels) [2, 4]","inhibition of developmental angiogenesis of the hyaloid vasculature (number of primary hyaloid vessels) [2, 5]",cell viability (MTT assay) [3],angiogenesis (sprout formation) in aortic rings (mouse aortic ring)
"COc1ccccc1/C=C/c1cnccn1 [AT-051/41206012, 2-[2-(2-methoxyphenyl)ethenyl]pyrazine]",does not inhibit developmental angiogenesis of the intersegmental vessels; also recorded: does not affect the development of intersegmental vessels,significantly inhibits developmental angiogenesis of zebrafish hyaloid vessels; also recorded: does inhibit developmental angiogenesis of the zebrafish hyaloid vasculature in a statistically significant manner,,,
"Oc1ccccc1/C=C/c1ccccn1 [Compound 1, (E)-2-[2-(Pyridin-2-yl)vinyl]phenol]",,inhibit developmental angiogenesis of the zebrafish hyaloid vasculature in a statistically significant manner,,,
"Cl.Oc1ccccc1/C=C/c1ccccn1 [Compound 2, (E)-2-[2-(Pyridin-2-yl)vinyl]phenol hydrochloride]",inhibit developmental angiogenesis of zebrafish intersegmental vessels in a statistically significant manner,inhibit developmental angiogenesis of the zebrafish hyaloid vasculature in a statistically significant manner,inhibit developmental angiogenesis of the zebrafish hyaloid vasculature in a statistically significant manner,,
"Oc1ccccc1/C=C/c1cnccn1 [Compound 3, (E)-2-[2-(Pyrazin-2-yl)vinyl]phenol]",inhibit developmental angiogenesis of zebrafish intersegmental vessels in a statistically significant manner,inhibit developmental angiogenesis of the zebrafish hyaloid vasculature in a statistically significant manner,inhibit developmental angiogenesis of the zebrafish hyaloid vasculature in a statistically significant manner,,
"Cc1cccc(/C=C/c2ccccc2O)n1.Cl [Compound 8, (E)-2-[2-(6-Methylpyridin-2-yl)vinyl]phenol hydrochloride]",,inhibit developmental angiogenesis of the zebrafish hyaloid vasculature in a statistically significant manner,inhibit developmental angiogenesis of the zebrafish hyaloid vasculature in a statistically significant manner,does not affect cell viability,
"C/C(=C\c1ccccc1O)c1cnccn1 [Compound 11, (E)-2-[2-(Pyrazin-2-yl)prop-1-enyl]phenol]",,inhibit developmental angiogenesis of the zebrafish hyaloid vasculature in a statistically significant manner,,,
"Cc1ccc(O)c(/C=C/c2cnccn2)c1 [Compound 13, (E)-4-Methyl-[2-(2-(pyrazin-2-yl)vinyl)]phenol]",,inhibit developmental angiogenesis of the zebrafish hyaloid vasculature in a statistically significant manner,,,
"Cc1ccc(O)c(/C=C/c2cnccn2)c1.Cl [Compound 14, (E)-4-Methyl-[2-(2-(Pyrazin-2-yl)vinyl)]phenol hydrochloride]",,inhibit developmental angiogenesis of the zebrafish hyaloid vasculature in a statistically significant manner,,,
"Cl.Oc1ccccc1/C=C/c1ncccn1 [Compound 15, (E)-2-[2-(Pyrimidin-2-yl)vinyl]phenol hydrochloride]",,inhibit developmental angiogenesis of the zebrafish hyaloid vasculature in a statistically significant manner,,does not affect cell viability,block angiogenesis (sprout formation); also recorded: inhibit the formation of sprouts in a statistically significant manner
"COc1ccccc1C#Cc1cnccn1 [Compound 19, 2-[2-(2-Methoxyphenyl)ethynyl]pyrazine]",inhibit developmental angiogenesis of zebrafish intersegmental vessels in a statistically significant manner,,inhibit developmental angiogenesis of the zebrafish hyaloid vasculature in a statistically significant manner,,
"Cl.Oc1ccccc1C#Cc1cnccn1 [Compound 20, 2-[2-(pyrazin-2-yl)ethynyl]phenol hydrochloride]",inhibit developmental angiogenesis of zebrafish intersegmental vessels in a statistically significant manner,inhibit developmental angiogenesis of the zebrafish hyaloid vasculature in a statistically significant manner,inhibit developmental angiogenesis of the zebrafish hyaloid vasculature in a statistically significant manner,does not affect cell viability,block angiogenesis (sprout formation); also recorded: inhibit the formation of sprouts in a statistically significant manner
"Cl.Oc1ccccc1/C=C/c1ncc[nH]1 [Compound 23, (E)-2-(2-(IH-Imidazol-2-yl)vinyl)phenol hydrochloride]",,inhibit developmental angiogenesis of the zebrafish hyaloid vasculature in a statistically significant manner,,,
